Data published in ChEMBL document CHEMBL5512645, “A novel antimicrobial peptide with broad-spectrum and exceptional stability derived from the natural peptide Brevicidine” (Eur J Med Chem, 2024).
≈ marks a conversion by molar mass, not a printed value. Calls of active or inactive are those of the source. No cut-off for these calls is given here. Bridge positions count the residues as written; N and C are the ends. Square brackets hold non-standard residues; d marks the D form. Peptide text beside a SMILES is read from it. * marks the point of attachment. ξ: configuration not given here. Hexanoyl(4ξ-Me) = CCC(C)CCC(=O)*; dOrn = NCCC[C@@H](N)C(=O)O; Orn = NCCC[C@H](N)C(=O)O

How the values were obtained:
[1] = tested on: Escherichia coli; assay: Antibacterial activity against Escherichia coli ATCC 25922 incubated for 18 to 24 hrs by broth microdilution method; format: functional; details: time 18-24 hrs
[2] = tested on: Klebsiella pneumoniae; assay: Antibacterial activity against Klebsiella pneumoniae ATCC 700603 incubated for 18 to 24 hrs by broth microdilution method; format: functional; details: time 18-24 hrs
[3] = tested on: Pseudomonas aeruginosa; assay: Antibacterial activity against Pseudomonas aeruginosa ATCC 27853 incubated for 18 to 24 hrs by broth microdilution method; format: functional; details: time 18-24 hrs
[4] = tested on: Acinetobacter baumannii; assay: Antibacterial activity against Acinetobacter baumannii ATCC 19606 incubated for 18 to 24 hrs by broth microdilution method; format: functional; details: time 18-24 hrs
[5] = tested on: Staphylococcus aureus; assay: Antibacterial activity against Staphylococcus aureus ATCC 25923 incubated for 18 to 24 hrs by broth microdilution method; format: functional; details: time 18-24 hrs
[6] = tested on: Bacillus subtilis; assay: Antibacterial activity against Bacillus subtilis ATCC 23857 incubated for 18 to 24 hrs by broth microdilution method; format: functional; details: time 18-24 hrs
[7] = tested on: Staphylococcus epidermidis; assay: Antibacterial activity against Staphylococcus epidermidis ATCC 12228 incubated for 18 to 24 hrs by broth microdilution method; format: functional; details: time 18-24 hrs
[8] = tested on: Enterococcus faecalis; assay: Antibacterial activity against Enterococcus faecalis ATCC 29212 incubated for 18 to 24 hrs by broth microdilution method; format: functional; details: time 18-24 hrs
[9] = Cytotoxicity against human HK-2 cells measured after 24 hrs MTT assay; format: toxicity, cell-based
[10] = Retention time of the compound in mouse serum by RP-HPLC analysis; format: ADME, cell-free
[11] = tested on: Pseudomonas aeruginosa; assay: Antibacterial activity against Pseudomonas aeruginosa ATCC 27853 pretreated with 2.5% mouse serum followed by compound addition and measured after 1 hr by broth microdilution method (reference value: 2 microM); format: functional
[12] = tested on: Pseudomonas aeruginosa; assay: Antibacterial activity against Pseudomonas aeruginosa ATCC 27853 pretreated with 5% mouse serum followed by compound addition and measured after 1 hr by broth microdilution method (reference value: 2 microM); format: functional
[13] = tested on: Pseudomonas aeruginosa; assay: Antibacterial activity against Pseudomonas aeruginosa ATCC 27853 pretreated with 10% mouse serum followed by compound addition and measured after 1 hr by broth microdilution method (reference value: 2 microM); format: functional
[14] = tested on: Pseudomonas aeruginosa; assay: Antibacterial activity against Pseudomonas aeruginosa ATCC 27853 pretreated with 20% mouse serum followed by compound addition and measured after 1 hr by broth microdilution method (reference value: 2 microM); format: functional
[15] = tested on: Pseudomonas aeruginosa; assay: Antibacterial activity against Pseudomonas aeruginosa ATCC 27853 pretreated with 2.5% mouse serum followed by compound addition and measured after 6 hrs by broth microdilution method (reference value: 2 microM); format: functional
[16] = tested on: Pseudomonas aeruginosa; assay: Antibacterial activity against Pseudomonas aeruginosa ATCC 27853 pretreated with 5% mouse serum followed by compound addition and measured after 6 hrs by broth microdilution method (reference value: 2 microM); format: functional
[17] = tested on: Pseudomonas aeruginosa; assay: Antibacterial activity against Pseudomonas aeruginosa ATCC 27853 pretreated with 10% mouse serum followed by compound addition and measured after 6 hrs by broth microdilution method (reference value: 2 microM); format: functional
[18] = tested on: Pseudomonas aeruginosa; assay: Antibacterial activity against Pseudomonas aeruginosa ATCC 27853 pretreated with 20% mouse serum followed by compound addition and measured after 6 hrs by broth microdilution method (reference value: 2 microM); format: functional
[19] = tested on: Pseudomonas aeruginosa; assay: Antibacterial activity against Pseudomonas aeruginosa ATCC 27853 pretreated with Na-cl followed by compound addition and measured after 2 hrs by broth microdilution method (reference value: 2 microM); format: functional
[20] = tested on: Pseudomonas aeruginosa; assay: Antibacterial activity against Pseudomonas aeruginosa ATCC 27853 pretreated with KCl followed by compound addition and measured after 2 hrs by broth microdilution method (reference value: 2 microM); format: functional
[21] = tested on: Pseudomonas aeruginosa; assay: Antibacterial activity against Pseudomonas aeruginosa ATCC 27853 pretreated with Mgcl2 followed by compound addition and measured after 2 hrs by broth microdilution method (reference value: 2 microM); format: functional
[22] = tested on: Pseudomonas aeruginosa; assay: Antibacterial activity against Pseudomonas aeruginosa ATCC 27853 pretreated with FeCl3 followed by compound addition and measured after 2 hrs by broth microdilution method (reference value: 2 microM); format: functional
[23] = tested on: Pseudomonas aeruginosa; assay: Antibacterial activity against Pseudomonas aeruginosa ATCC 27853 pretreated with Zncl2 followed by compound addition and measured after 2 hrs by broth microdilution method (reference value: 2 microM); format: functional
[24] = tested on: Pseudomonas aeruginosa; assay: Antibacterial activity against Pseudomonas aeruginosa ATCC 27853 assessed as reduction in survival bacterial growth in presence of trypsin measured after 8 hrs by absorbance based analysis; format: functional, organism-based
[25] = tested on: Pseudomonas aeruginosa; assay: Antibiofilm activity against Pseudomonas aeruginosa ATCC 27853 at 1/2 to 4 times MIC measured after 24 hrs by crystal violet staining based analysis; format: functional, organism-based
[26] = tested on: Staphylococcus aureus; assay: Antibiofilm activity against Staphylococcus aureus ATCC 25923 at 1/2 to 4 times MIC measured after 24 hrs by crystal violet staining based analysis; format: functional, organism-based
[27] = tested on: Pseudomonas aeruginosa; assay: Antibacterial activity against Pseudomonas aeruginosa ATCC 27853 at sub-MIC measured after 20 days; format: functional, organism-based; details: time 20.0 day
[28] = tested on: Pseudomonas aeruginosa; assay: Antibacterial activity against Pseudomonas aeruginosa ATCC 27853 at sub-MIC measured after 20 days in presence of rifampicin; format: functional, organism-based; details: time 20.0 day
[29] = tested on: Pseudomonas aeruginosa; assay: Antibacterial activity against Pseudomonas aeruginosa ATCC 27853 at sub-MIC measured after 20 days in presence of gentamicin; format: functional, organism-based; details: time 20.0 day
[30] = tested on: Staphylococcus aureus; assay: Antibacterial activity against Staphylococcus aureus ATCC 25923 at sub-MIC measured after 20 days in presence of rifampicin; format: functional, organism-based; details: time 20.0 day
[31] = tested on: Staphylococcus aureus; assay: Antibacterial activity against Staphylococcus aureus ATCC 25923 at sub-MIC measured after 20 days in presence of gentamicin; format: functional, organism-based; details: time 20.0 day
[32] = tested on: Staphylococcus aureus; assay: In vivo antibacterial activity against Staphylococcus aureus ATCC 25923 infected in BALB/c mouse model assessed as reduction in bacterial count in kidney at 10 mg/kg, ip preadministered with compound for 1 hr followed by bacterial infection and measured after 6 hrs […]; format: functional, organism-based; details: time 7.0 hrs
[33] = tested on: Staphylococcus aureus; assay: In vivo antibacterial activity against Staphylococcus aureus ATCC 25923 infected in BALB/c mouse model assessed as amelioration of pathological changes in lung at 5 to 10 mg/kg, ip measured after 7 hrs by H and E staining based analysis; format: functional, organism-based; details: dose 5-10 mg/kg
[34] = tested on: Staphylococcus aureus; assay: In vivo antibacterial activity against Staphylococcus aureus ATCC 25923 infected in BALB/c mouse model assessed as amelioration of pathological changes in liver at 5 to 10 mg/kg, ip measured after 7 hrs by H and E staining based analysis; format: functional, organism-based; details: dose 5-10 mg/kg
[35] = tested on: Staphylococcus aureus; assay: In vivo antibacterial activity against Staphylococcus aureus ATCC 25923 infected in BALB/c mouse model assessed as amelioration of pathological changes in spleen at 5 to 10 mg/kg, ip measured after 7 hrs by H and E staining based analysis; format: functional, organism-based; details: dose 5-10 mg/kg
[36] = tested on: Pseudomonas aeruginosa; assay: Antibacterial activity against Pseudomonas aeruginosa ATCC 27853 assessed as fold increase in MIC pretreated with NaCl followed by compound addition and measured after 2 hrs by broth microdilution method; format: functional
[37] = tested on: Pseudomonas aeruginosa; assay: Induction of morphological changes in Pseudomonas aeruginosa ATCC 27853 assessed as pore formation on bacterial surface at 2 times MIC measured after 0.5 hrs by SEM based analysis; format: functional, organism-based
[38] = tested on: Pseudomonas aeruginosa; assay: Induction of morphological changes in Pseudomonas aeruginosa ATCC 27853 assessed as membrane rupture at 2 times MIC measured after 2 hrs by SEM based analysis; format: functional, organism-based

Row | Compound | MIC [1] [µM] | MIC [2] [µM] | MIC [3] [µM] | MIC [4] [µM] | MIC [5] [µM] | MIC [6] [µM] | MIC [7] [µM] | MIC [8] [µM] | MIC [11] [µM] | MIC [12] [µM] | MIC [13] [µM] | MIC [14] [µM] | MIC [15] [µM] | MIC [16] [µM] | MIC [17] [µM] | MIC [18] [µM] | MIC [19] [µM] | MIC [20] [µM] | MIC [21] [µM] | MIC [22] [µM] | further results
1 | CCCCCCCCCC(=O)N[C@H](CCCN)C(=O)N[C@H](Cc1ccc(O)cc1)C(=O)N[C@H](Cc1c[nH]c2ccccc12)C(=O)N[C@H](CCCN)C(=O)N[C@@H](CCCN)C(=O)NCC(=O)N[C@H](CCCN)C(=O)N[C@@H](Cc1c[nH]c2ccccc12)C(=O)N[C@H](C(=O)N[C@H](C(=O)NCC(=O)N[C@@H](CO)C(=O)O)[C@@H](C)CC)[C@@H](C)O | 4 (≈ 6.32 µg/mL) | 4 (≈ 6.32 µg/mL) | 2 (≈ 3.16 µg/mL) | 4 (≈ 6.32 µg/mL) | 8 (≈ 12.6 µg/mL) | 2 (≈ 3.16 µg/mL) | 4 (≈ 6.32 µg/mL) | 16 (≈ 25.3 µg/mL) | 2 (≈ 3.16 µg/mL) | 2 (≈ 3.16 µg/mL) | 2 (≈ 3.16 µg/mL) | 4 (≈ 6.32 µg/mL) | 2 (≈ 3.16 µg/mL) | 2 (≈ 3.16 µg/mL) | 4 (≈ 6.32 µg/mL) | 8 (≈ 12.6 µg/mL) | 2 (≈ 3.16 µg/mL) | 2 (≈ 3.16 µg/mL) | 2 (≈ 3.16 µg/mL) | < 1 | IC50 at 24 h [9]: 21.1 µM; Retention_time [10]: 15.312 min; MIC [23]: 2 µM (≈ 3.16 µg/mL); Activity [24]: Active; Activity [25]: Active; Activity [26]: Active; Activity [27]: Active; Activity [28]: Active; Activity [29]: Active; Activity [30]: Active; Activity [31]: Active; Activity [32]: Active; Activity [33]: Active; Activity [34]: Active; Activity [35]: Active; fold change (FC) [36]: 8
2 | CCC(C)CCC(=O)N[C@H](CC(N)=O)C(=O)N[C@H](Cc1ccc(O)cc1)C(=O)N[C@H](Cc1c[nH]c2ccccc12)C(=O)N[C@H](CCCN)C(=O)N[C@@H](CCCN)C(=O)NCC(=O)N[C@H](CCCN)C(=O)N[C@@H](Cc1c[nH]c2ccccc12)C(=O)N[C@@H]1C(=O)N[C@@H]([C@@H](C)CC)C(=O)NCC(=O)N[C@@H](CO)C(=O)O[C@@H]1C (stereo partly drawn) ({Hexanoyl(4ξ-Me)}-[dN][dY][dW][dOrn][Orn]G[dOrn]WTIGS; ester 9-C) | 2 (≈ 3.04 µg/mL) | 2 (≈ 3.04 µg/mL) | 2 (≈ 3.04 µg/mL) | 8 (≈ 12.2 µg/mL) | 64 (≈ 97.3 µg/mL) | 8 (≈ 12.2 µg/mL) | 32 (≈ 48.6 µg/mL) | 64 (≈ 97.3 µg/mL) | 2 (≈ 3.04 µg/mL) | 2 (≈ 3.04 µg/mL) | 4 (≈ 6.08 µg/mL) | 4 (≈ 6.08 µg/mL) | 8 (≈ 12.2 µg/mL) | 8 (≈ 12.2 µg/mL) | 8 (≈ 12.2 µg/mL) | 16 (≈ 24.3 µg/mL) | 4 (≈ 6.08 µg/mL) | 8 (≈ 12.2 µg/mL) | 8 (≈ 12.2 µg/mL) | 4 (≈ 6.08 µg/mL) | IC50 at 24 h [9]: 36.5 µM; Retention_time [10]: 14.82 min; MIC [23]: 4 µM (≈ 6.08 µg/mL); Activity [24]: Active; Activity [25]: Active; Activity [26]: Active; Activity [27]: Active; Activity [28]: Active; Activity [29]: Active; Activity [30]: Active; Activity [31]: Active; Activity [37]: Active; Activity [38]: Active; fold change (FC) [36]: 2
3 | POLYMYXIN B | 2 | 4 | 2 | 1 | 16 | 8 | 32 | 128 | 2 | 2 | 2 | 2 | 2 | 2 | 4 | 4 | < 1 | < 1 | 2 | < 1 | MIC [23]: < 1 µM; Activity [25]: Active; Activity [26]: Active; Activity [28]: Active; Activity [29]: Active; Activity [30]: Active; Activity [31]: Active; Activity [37]: Active; Activity [38]: Active; Activity [32]: Active; Activity [33]: Active; Activity [34]: Active; Activity [35]: Active
